Values joined by “and” are separate entries in the source; they are usually repeats but may differ in a detail not shown here. Equal values may be shown once. Toxic doses and inconclusive results are not listed. The calls were made as follows: active = survival T/C of 150% or more; inactive = T/C below 125% in these data. Peptide text beside a SMILES is read from it.
Tested on: P388 leukemia ip, CD2F1 mice, survival T/C
Assay: NCI In Vivo Anticancer Drug Screen. Data for tumor model P388 Leukemia (intraperitoneal) in CD2F1 (CDF1) mice
Details: endpoint: median survival time, higher = longer survival
Procedure, shortened: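 Mice carrying the transplanted tumor received test compound or vehicle. Survival was recorded in each group, and the value is the treated-group measurement divided by that of the vehicle-treated control group.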

[1] = dose: 60.0 mg/kg/injection, schedule: Q01DX005 (ip), vehicle: saline with Tween-80
[2] = dose: 120.0 mg/kg/injection, schedule: Q01DX005 (ip), vehicle: saline with Tween-80
[3] = dose: 240.0 mg/kg/injection, schedule: Q01DX005 (ip), vehicle: saline with Tween-80
[4] = dose: 200.0 mg/kg/injection, schedule: Q01DX001 (ip), vehicle: Klucel (hydroxypropylcellulose) (HPC)
[5] = dose: 400.0 mg/kg/injection, schedule: Q01DX001 (ip), vehicle: Klucel (hydroxypropylcellulose) (HPC)
[6] = dose: 6.25 mg/kg/injection, schedule: Q01DX009 (ip), vehicle: Klucel (hydroxypropylcellulose) (HPC)
[7] = dose: 12.5 mg/kg/injection, schedule: Q01DX009 (ip), vehicle: Klucel (hydroxypropylcellulose) (HPC)
[8] = dose: 25.0 mg/kg/injection, schedule: Q01DX009 (ip), vehicle: Klucel (hydroxypropylcellulose) (HPC)
[9] = dose: 50.0 mg/kg/injection, schedule: Q01DX009 (ip), vehicle: Klucel (hydroxypropylcellulose) (HPC)
[10] = dose: 100.0 mg/kg/injection, schedule: Q01DX009 (ip), vehicle: Klucel (hydroxypropylcellulose) (HPC)
[11] = dose: 200.0 mg/kg/injection, schedule: Q01DX009 (ip), vehicle: Klucel (hydroxypropylcellulose) (HPC)
[12] = dose: 60.0 mg/kg/injection, schedule: Q01DX005 (ip), vehicle: Klucel (hydroxypropylcellulose) (HPC)
[13] = dose: 120.0 mg/kg/injection, schedule: Q01DX005 (ip), vehicle: Klucel (hydroxypropylcellulose) (HPC)
[14] = dose: 50.0 mg/kg/injection, schedule: Q01DX005 (ip), vehicle: Klucel (hydroxypropylcellulose) (HPC)
[15] = dose: 100.0 mg/kg/injection, schedule: Q01DX005 (ip), vehicle: Klucel (hydroxypropylcellulose) (HPC)
[16] = dose: 200.0 mg/kg/injection, schedule: Q01DX005 (ip), vehicle: Klucel (hydroxypropylcellulose) (HPC)
[17] = dose: 12.5 mg/kg/injection, schedule: Q01DX005 (ip), vehicle: saline with Tween-80
[18] = dose: 25.0 mg/kg/injection, schedule: Q01DX005 (ip), vehicle: saline with Tween-80
[19] = dose: 50.0 mg/kg/injection, schedule: Q01DX005 (ip), vehicle: saline with Tween-80
[20] = dose: 12.5 mg/kg/injection, schedule: Q01DX009 (ip), vehicle: saline
[21] = dose: 25.0 mg/kg/injection, schedule: Q01DX009 (ip), vehicle: saline
[22] = dose: 50.0 mg/kg/injection, schedule: Q01DX009 (ip), vehicle: saline
[23] = dose: 100.0 mg/kg/injection, schedule: Q01DX009 (ip), vehicle: saline
[24] = dose: 200.0 mg/kg/injection, schedule: Q01DX009 (ip), vehicle: saline
[25] = dose: 100.0 mg/kg/injection, schedule: Q01DX005 (ip), vehicle: saline with Tween-80
[26] = dose: 200.0 mg/kg/injection, schedule: Q01DX005 (ip), vehicle: saline with Tween-80

Measured: T/C

CC(NC(=O)C1CCCN1C(=O)OC(C)(C)C)C(=O)OCc1ccccc1 (centres undefined)
inactive: dose: 50.0 mg/kg/injection, schedule: Q01DX005 (ip), vehicle: saline + Tween-80 + alcohol 98 % of control | dose: 100.0 mg/kg/injection, schedule: Q01DX005 (ip), vehicle: saline + Tween-80 + alcohol 98 % of control | dose: 200.0 mg/kg/injection, schedule: Q01DX005 (ip), vehicle: saline + Tween-80 + alcohol 99 % of control

NC(=S)N1N=C(c2cccc([N+](=O)[O-])c2)CCC1=O
inactive: dose: 25.0 mg/kg/injection, schedule: Q04DX003 (ip), vehicle: saline with Tween-80 100 % of control | dose: 50.0 mg/kg/injection, schedule: Q04DX003 (ip), vehicle: saline with Tween-80 103 % of control | dose: 100.0 mg/kg/injection, schedule: Q04DX003 (ip), vehicle: saline with Tween-80 100 % of control | dose: 200.0 mg/kg/injection, schedule: Q04DX003 (ip), vehicle: saline with Tween-80 101 % of control

NC(=O)C1C=CN(Cc2ccccc2)C=C1
inactive: dose: 30.0 mg/kg/injection, schedule: Q01DX005 (ip), vehicle: saline with Tween-80 105 % of control and 106 % of control | [1] 108 % of control and 111 % of control and 123 % of control | [2] 117 % of control and 118 % of control | [3] 108 % of control and 123 % of control

O=C1CSC(c2ccc(C(F)(F)F)cc2)N1c1nncs1 (centres undefined)
inactive: [1] 99 % of control | [2] 104 % of control | [3] 97 % of control

N#CC(c1cc2c(cc1Br)OCO2)N1CCCC1 (centres undefined)
inactive: dose: 100.0 mg/kg/injection, schedule: Q01DX001 (ip), vehicle: Klucel (hydroxypropylcellulose) (HPC) 100 % of control | [4] 101 % of control | [5] 99 % of control

CCO/C=C/C(=O)O
inactive: [1] 106 % of control | [2] 100 % of control | [3] 107 % of control

C=CC(C)(C)n1cc(C2=C(O)C(=O)C(c3cn(C(C)(C)C=C)c4ccccc34)=C(O)C2=O)c2ccccc21
inactive: dose: 2.5 mg/kg/injection, schedule: Q01DX009 (ip), vehicle: carboxymethylcellulose (CMC) 101 % of control | dose: 5.0 mg/kg/injection, schedule: Q01DX009 (ip), vehicle: carboxymethylcellulose (CMC) 103 % of control and 88 % of control | [6] 99 % of control | dose: 10.0 mg/kg/injection, schedule: Q01DX009 (ip), vehicle: carboxymethylcellulose (CMC) 108 % of control and 93 % of control | [7] 100 % of control | dose: 18.0 mg/kg/injection, schedule: Q01DX009 (ip), vehicle: Klucel (hydroxypropylcellulose) (HPC) 95 % of control | dose: 20.0 mg/kg/injection, schedule: Q01DX009 (ip), vehicle: carboxymethylcellulose (CMC) 120 % of control and 90 % of control | [8] 99 % of control | dose: 26.0 mg/kg/injection, schedule: Q01DX009 (ip), vehicle: Klucel (hydroxypropylcellulose) (HPC) 104 % of control | dose: 40.0 mg/kg/injection, schedule: Q01DX009 (ip), vehicle: Klucel (hydroxypropylcellulose) (HPC) 90 % of control | dose: 40.0 mg/kg/injection, schedule: Q01DX009 (ip), vehicle: carboxymethylcellulose (CMC) 114 % of control | [9] 100 % of control | [10] 113 % of control

FC(F)(F)C(OCC1CO1)(c1cccc(C(OCC2CO2)(C(F)(F)F)C(F)(F)F)c1)C(F)(F)F (centres undefined)
inactive: [9] 99 % of control | [10] 100 % of control | [11] 100 % of control

O=C(Nc1ccc(S(=O)(=O)F)cc1)/C(=C/c1cccc([N+](=O)[O-])c1)c1ccccc1
inactive: [12] 102 % of control | [13] 98 % of control | dose: 240.0 mg/kg/injection, schedule: Q01DX005 (ip), vehicle: Klucel (hydroxypropylcellulose) (HPC) 94 % of control

COC(=O)c1cc(=O)nc(N/N=C/c2ccccc2O)s1
inactive: [14] 98 % of control | [15] 100 % of control | [16] 108 % of control

C/C(=N\Nc1cc(C)c2ccccc2n1)c1ccccn1
inactive: [17] 103 % of control | [18] 103 % of control | [19] 102 % of control and 115 % of control

Cc1cn(C2CC(F)C(CO)O2)c(=O)[nH]c1=O (centres undefined)
inactive: [20] 106 % of control | [21] 101 % of control and 103 % of control | [22] 100 % of control and 110 % of control | [23] 101 % of control and 119 % of control | [24] 101 % of control | dose: 400.0 mg/kg/injection, schedule: Q01DX009 (ip), vehicle: saline 116 % of control

CCc1cccc(CC)c1N1C(=O)C(=O)C(C(C)=O)C1=O (centres undefined)
inactive: [18] 101 % of control | [19] 99 % of control and 101 % of control | [25] 101 % of control | [26] 89 % of control

Cc1c(C)[n+](=O)c2ccc(/C=N/N3CCOC3=O)cc2n1[O-]
inactive: [6] 106 % of control | [7] 97 % of control | [8] 102 % of control | [10] 90 % of control

Cc1nn(C(=O)c2ccncc2)c(C)c1N=Nc1cccc(Cl)c1
inactive: [9] 99 % of control | [10] 100 % of control | [11] 98 % of control

Oc1ccc(O)c2c(O)c3ccccc3c(O)c12
inactive: [19] 102 % of control | [25] 107 % of control | [26] 93 % of control

COc1ccc2ncc(COC(C)=O)c(C)c2c1
inactive: [19] 99 % of control | [25] 99 % of control | [26] 93 % of control

O=C1CSC(c2ccc(O)c(O)c2)N1c1nncs1 (centres undefined)
inactive: dose: 25.0 mg/kg/injection, schedule: Q04DX002 (ip), vehicle: saline with Tween-80 96 % of control | dose: 50.0 mg/kg/injection, schedule: Q04DX002 (ip), vehicle: saline with Tween-80 100 % of control | dose: 100.0 mg/kg/injection, schedule: Q04DX002 (ip), vehicle: saline with Tween-80 98 % of control

Nc1ncc(Cl)c2ccccc12
inactive: dose: 6.25 mg/kg/injection, schedule: Q01DX005 (ip), vehicle: saline with Tween-80 99 % of control | [17] 97 % of control | [18] 89 % of control | [19] 101 % of control

CC1(C)CN=C(NN=C(/C=C/c2ccc(C(F)(F)F)cc2)/C=C/c2ccc(C(F)(F)F)cc2)NC1
inactive: [12] 98 % of control | [13] 98 % of control

O=C(O)CCC(=O)NCCNC(=O)CCC(=O)O
inactive: [22] 101 % of control | [23] 101 % of control | [24] 104 % of control

NC(=Nc1ccccc1)N(c1ccccc1)c1ccc([N+](=O)[O-])cc1
inactive: dose: 7.5 mg/kg/injection, schedule: Q01DX009 (ip), vehicle: saline with Tween-80 92 % of control | dose: 15.0 mg/kg/injection, schedule: Q01DX009 (ip), vehicle: saline with Tween-80 100 % of control | dose: 30.0 mg/kg/injection, schedule: Q01DX009 (ip), vehicle: saline with Tween-80 91 % of control

Cc1c(Cl)cccc1-n1c(=O)c2[nH]c3ccccc3sc=2c1=O
inactive: [1] 100 % of control | [2] 92 % of control | [3] 97 % of control

C/C(=N/N(C)C)c1ccc(Cl)cc1
inactive: dose: 100.0 mg/kg/injection, schedule: Q01DX001 (ip), vehicle: saline 100 % of control | [4] 108 % of control | dose: 200.0 mg/kg/injection, schedule: Q01DX001 (ip), vehicle: saline 108 % of control | [5] 106 % of control | dose: 400.0 mg/kg/injection, schedule: Q01DX001 (ip), vehicle: saline 106 % of control

CN1C=CC=CC1=C1C(=O)c2ccccc2C1=O
inactive: [14] 96 % of control | [15] 104 % of control | [16] 107 % of control

Cn1nc[n+](C)n1
inactive: [20] 91 % of control | [21] 91 % of control

CCC(C)C(N)C(=O)N1CCCC1C(=O)O (stereo not drawn) (H-Ile-Pro-OH; configuration not given here)
inactive: dose: 60.0 mg/kg/injection, schedule: Q01DX005 (ip), vehicle: saline 98 % of control | dose: 120.0 mg/kg/injection, schedule: Q01DX005 (ip), vehicle: saline 98 % of control | dose: 240.0 mg/kg/injection, schedule: Q01DX005 (ip), vehicle: saline 102 % of control
